From publication PMC4520593, “Virtual Screening of Peptide and Peptidomimetic Fragments Targeted to Inhibit Bacterial Dithiol Oxidase DsbA” (PLoS ONE, 2015)

Columns and labels:
PmDsbA = target: PmDsbA; design: method as in PMID 24831013; settings: ITC; cited from earlier work
Oxidized EcDsbA = target: T1, Oxidized EcDsbA (Escherichia coli, UniProt P0AEG4); experiment: Isothermal titration calorimetry of compounds into EcDsbA; assay type: binding; settings: 25°C
T1 construct: made in house
Procedure: Oxidized EcDsbA was diluted to 50 μM in 25 mM HEPES pH 7.4, 50 mM NaCl and 5% DMSO. Compounds were dissolved in 100% DMSO, and then diluted to a final concentration of 2 mM into 25 mM HEPES pH 7.4 50 mM NaCl with a final DMSO concentration of 5%. All experiments were performed using the MicroCal Auto-ITC200 instrument (GE Healthcare, USA), loading 200 μL of EcDsbA in the sample cell and 40 μL of compound in the syringe. Titrations were set up at 25°C with 19 injections of 2 μL separated by 180 seconds and a constant stirring speed of 1000 rpm. A preliminary injection of 0.5 μL was added to avoid slow leakage of titrant into the sample cell before the first 2 μL injection and the corresponding data point was excluded from analysis. Every compound was tested with three technical replicates. An additional titration of compound into buffer only (25 mM HEPES pH 7.4, 50 mM NaCl and 5% DMSO) was performed to measure the background heat of dilution. Analysis was performed with the MicroCal Origin software (version 7.0552).

T1 sequence (P0AEG4 20-208): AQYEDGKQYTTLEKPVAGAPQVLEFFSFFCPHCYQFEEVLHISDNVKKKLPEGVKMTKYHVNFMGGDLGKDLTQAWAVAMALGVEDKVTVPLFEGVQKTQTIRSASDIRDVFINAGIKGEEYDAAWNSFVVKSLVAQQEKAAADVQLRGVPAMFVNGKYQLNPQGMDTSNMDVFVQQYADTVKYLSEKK

Row | Compound | Kd (PmDsbA) [µM] | ΔH (PmDsbA) [kcal/mol] | ΔS (PmDsbA) [cal.mol^-1.deg^-1] | ITC binding to EcDsbA (Oxidized EcDsbA; 50 μM EcDsbA, 2 mM compound in syringe, 5% DMSO) | release of energy for the highest peak (ITC) (Oxidized EcDsbA; titration of EcDsbA) [µcal/s]
1 | PWATCDS | 8.3 ± 0.4 | -13.7 ± 0.3 | -22.3±1.1 | – | –
2 | O=C(NCc1ccccc1)[C@H](Cc1c[nH]c2ccccc12)NC(=O)N1CCOCC1 [Compound 1, (S)-2-[N-(Morpholine-1-carbonyl)amino]-3-(1H-indol-3-yl)-N-(benzyl)propanamide] | – | – | – | little evidence of binding | -0.60
